Assays:
Liver carboxylesterase 1 = target: T1, Liver carboxylesterase 1 (Homo sapiens, UniProt P23141); assay: Inhibition of human carboxylesterase 1 using 2-(2'-benzoyl-3'-methoxylphenyl)-benzothiazole as substrate at 0.1 to 200 uM by fluorescence assay
T1 sequence (P23141 whole entry): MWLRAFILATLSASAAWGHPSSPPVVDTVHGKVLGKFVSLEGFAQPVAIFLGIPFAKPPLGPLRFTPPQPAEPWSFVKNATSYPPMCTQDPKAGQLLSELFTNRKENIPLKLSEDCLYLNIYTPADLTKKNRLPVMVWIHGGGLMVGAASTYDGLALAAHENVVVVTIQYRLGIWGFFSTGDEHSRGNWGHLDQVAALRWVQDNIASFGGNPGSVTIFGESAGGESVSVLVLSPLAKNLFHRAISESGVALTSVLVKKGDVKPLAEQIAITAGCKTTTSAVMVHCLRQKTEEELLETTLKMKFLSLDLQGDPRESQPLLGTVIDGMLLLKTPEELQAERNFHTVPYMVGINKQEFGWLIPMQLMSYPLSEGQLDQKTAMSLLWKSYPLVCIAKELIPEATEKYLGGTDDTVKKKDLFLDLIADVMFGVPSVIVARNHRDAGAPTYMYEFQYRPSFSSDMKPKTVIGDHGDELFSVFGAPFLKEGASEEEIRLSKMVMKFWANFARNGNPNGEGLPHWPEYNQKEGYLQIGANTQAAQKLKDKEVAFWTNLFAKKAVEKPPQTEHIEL

Cocaine esterase [1] = target: T2, Cocaine esterase (Homo sapiens, UniProt O00748); assay: Inhibition of human carboxylesterase 2 using 4-benzoyl-N-butyl-1,8-naphthalimide as substrate by fluorescence assay
T2 sequence (O00748 whole entry): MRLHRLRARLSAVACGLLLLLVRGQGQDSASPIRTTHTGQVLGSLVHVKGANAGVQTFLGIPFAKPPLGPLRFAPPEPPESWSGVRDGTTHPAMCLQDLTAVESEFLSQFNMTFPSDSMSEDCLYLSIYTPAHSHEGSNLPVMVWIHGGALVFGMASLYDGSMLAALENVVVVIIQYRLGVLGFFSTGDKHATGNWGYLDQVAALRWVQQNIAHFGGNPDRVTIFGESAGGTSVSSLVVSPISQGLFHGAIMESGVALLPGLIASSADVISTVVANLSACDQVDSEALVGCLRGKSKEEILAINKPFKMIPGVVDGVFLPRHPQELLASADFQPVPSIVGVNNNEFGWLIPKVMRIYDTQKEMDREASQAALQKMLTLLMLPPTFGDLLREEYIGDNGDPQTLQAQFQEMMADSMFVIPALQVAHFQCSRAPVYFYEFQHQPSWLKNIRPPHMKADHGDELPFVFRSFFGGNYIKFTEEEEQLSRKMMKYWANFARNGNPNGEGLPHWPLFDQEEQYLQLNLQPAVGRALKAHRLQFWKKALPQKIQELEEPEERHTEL

Cocaine esterase [2] = target: T2, Cocaine esterase; assay: […] inhibition of human carboxylesterase 2 using 4-benzoyl-N-butyl-1,8-naphthalimide as substrate by Dixon and Lineweaver-Burk plot analysis

Row | Structure (SMILES) | inhibition (INH) (Liver carboxylesterase 1) | IC50 (Cocaine esterase [1]) [µM] | Ki (Cocaine esterase [2]) [nM]
1 | C[C@H](C[C@H](O)[C@@H](O)C(C)(C)O)C1=C2CC[C@H]3[C@@]4(C)CCC(=O)C(C)(C)[C@@H]4CC[C@]3(C)[C@@]2(C)CC1 | Not Active | 4.63 | 
2 | C[C@@H]1C[C@@H]([C@@H](O)C(C)(C)O)O[C@H]2C[C@@]3(C)C(=C12)C=C[C@H]1[C@@]2(C)CCC(=O)C(C)(C)[C@@H]2CC[C@@]13C | Not Active |  | 
3 | C[C@H](CC(=O)[C@H](O)C(C)(C)O)C1=C2C=C[C@H]3[C@@]4(C)CCC(=O)C(C)(C)[C@@H]4CC[C@]3(C)[C@@]2(C)CC1=O | Not Active |  | 
4 | C[C@H](C[C@H](O)[C@@H](O)C(C)(C)O)C1=C2C[C@H](O)[C@H]3[C@@]4(C)CCC(=O)C(C)(C)[C@@H]4CC[C@]3(C)[C@@]2(C)CC1 [ALISOL A] | Not Active |  | 
5 | CC(=O)O[C@@H]([C@@H](O)C[C@@H](C)C1=C2C[C@H](O)[C@H]3[C@@]4(C)CCC(=O)C(C)(C)[C@@H]4CC[C@]3(C)[C@@]2(C)CC1)C(C)(C)O | Not Active |  | 
6 | C[C@H](C[C@H](O)[C@H](O)C(C)(C)O)C1=C2C=C[C@H]3[C@@]4(C)CCC(=O)C(C)(C)[C@@H]4CC[C@]3(C)[C@@]2(C)CC1=O | Not Active |  | 
7 | C=C(C)[C@H](O)[C@@H]1C[C@@H](C)C2=C3C[C@H](O)[C@H]4[C@@]5(C)CCC(=O)C(C)(C)[C@@H]5CC[C@]4(C)[C@@]3(C)C[C@@H]2O1 | Not Active |  | 
8 | C[C@H](CC[C@H](O)C(C)(C)O)[C@H]1CC[C@@]2(C)C1=CC=C1[C@]2(C)CC[C@H]2C(C)(C)C(=O)CC[C@]12C | Not Active | 4.58 | 
9 | CC(=O)O[C@@H](C[C@@H](C)C1=C2C=C[C@H]3[C@@]4(C)CCC(=O)C(C)(C)[C@@H]4CC[C@]3(C)[C@@]2(C)CC1=O)[C@H](O)C(C)(C)O | Not Active |  | 
10 | CC(=O)O[C@H]([C@@H]1C[C@@H](C)C2=C3C=C[C@H]4[C@@]5(C)CCC(=O)C(C)(C)[C@@H]5CC[C@]4(C)[C@@]3(C)C[C@@H]2O1)C(C)(C)O | Not Active | 24.3 | 
11 | C=C(C)[C@@H](O)[C@@H](O)C[C@@H](C)C1=C2C=C[C@H]3[C@@]4(C)CCC(=O)C(C)(C)[C@@H]4CC[C@]3(C)[C@@]2(C)CC1=O | Not Active | 8.68 | 
12 | CC1=CC(=O)C[C@@]2(C)[C@H]1CC[C@@]1(C)[C@H]2[C@@H](O)CC2=C([C@H](C)C[C@H](O)[C@@H](O)C(C)(C)O)CC[C@@]21C | Not Active | 2.02 | 1760
13 | CCOC(C)(C)[C@H](O)[C@@H](O)C[C@@H](C)C1=C2C[C@H](O)[C@H]3[C@@]4(C)CCC(=O)C(C)(C)[C@@H]4CC[C@]3(C)[C@@]2(C)CC1 | Not Active | 4.72 | 
14 | C[C@H](C[C@H](O)[C@H](O)C(C)(C)O)C1=C2C=C[C@H]3[C@@]4(C)CCC(=O)C(C)(C)[C@@H]4CC(=O)[C@]3(C)[C@@]2(C)CC1=O | Not Active |  | 
15 | CC(=O)O[C@H]1C[C@@H](C)C2=C3C[C@H](O)[C@H]4[C@@]5(C)CCC(=O)C(C)(C)[C@@H]5CC[C@]4(C)[C@@]3(C)C[C@@H]2O[C@@H]1C(C)(C)O | Not Active |  | 
16 | C[C@@H]1CC(=O)[C@@H](C(C)(C)O)O[C@H]2C[C@@]3(C)C(=C12)C=C[C@H]1[C@@]2(C)CCC(=O)C(C)(C)[C@@H]2CC[C@@]13C | Not Active |  | 
17 | C=C(C)[C@@H](O)[C@@H](O)C[C@@H](C)C1=C2CC[C@H]3[C@@]4(C)CCC(=O)C(C)(C)[C@@H]4CC[C@]3(C)[C@@]2(C)CC1 | Not Active |  | 
18 | CC(=O)C1=C2C=C[C@H]3[C@@]4(C)CCC(=O)C(C)(C)[C@@H]4CC[C@]3(C)[C@@]2(C)CC1=O | Not Active |  | 
19 | C[C@H](C[C@H](O)[C@@H](O)C(C)(C)O)C1=C2C[C@H](O)[C@H]3[C@@]4(C)CCC(=O)C(C)(C)[C@@H]4CC[C@]3(C)[C@@]2(C)C=C1 | Not Active |  | 
20 | C[C@H](C[C@H](O)[C@@H](O)C(C)(C)O)C1=C2C[C@@H]3OC(=O)C[C@@]4(C)[C@H](C(C)(C)C(=O)O)CC[C@@](C)([C@@H]34)[C@@]2(C)CC1 | Not Active | 20.9 | 
21 | CC1(C)O[C@@H]1[C@@H](O)C[C@](C)(O)C1=C2C[C@H](O)[C@H]3[C@@]4(C)CCC(=O)C(C)(C)[C@@H]4CC[C@]3(C)[C@@]2(C)CC1=O | Not Active |  | 

Reference: ChEMBL document CHEMBL3632528 (J Nat Prod, 2015)
